In PubChem BioAssay AID1963868 (Molecular Pharmacology Branch, DTP, NCI, 2024):
“And” between values parts separate entries of the source, which are not always exact repeats. Identical values can stand only once.

Test system: KRAS PDC tumor spheroids (HUVEC+MSC), viability
Test: Anticancer human tumor 254851-301-R-J1-PDC patient-derived colon carcinoma cell line growth inhibition [KRAS2]
Details: for viability, T/C: stronger effect = lower value
How it was run: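 Combination screen of spheroid viability in tumor-cell co-cultures with endothelial (HUVEC) and mesenchymal stem cell stroma. Each agent was tested in half-log dilutions, topping at clinical Cmax or at 10 microM without a known Cmax.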

[1] = curve of first compound, second compound 0.1 µM
[2] = curve of first compound, second compound 0.316 µM
[3] = curve of first compound, second compound 1 µM
[4] = curve of first compound, second compound 3.16 µM
[5] = curve of first compound, second compound 10 µM
[6] = second compound 0.1 µM, first compound 0.0316 µM
[7] = second compound 0.1 µM, first compound 0.1 µM
[8] = second compound 0.1 µM, first compound 0.316 µM
[9] = second compound 0.1 µM, first compound 1 µM
[10] = second compound 0.1 µM, first compound 3.16 µM
[11] = second compound 0.1 µM, first compound 10 µM
[12] = second compound 0.316 µM, first compound 0.0316 µM
[13] = second compound 0.316 µM, first compound 0.1 µM
[14] = second compound 0.316 µM, first compound 0.316 µM
[15] = second compound 0.316 µM, first compound 1 µM
[16] = second compound 0.316 µM, first compound 3.16 µM
[17] = second compound 0.316 µM, first compound 10 µM
[18] = second compound 1 µM, first compound 0.0316 µM
[19] = second compound 1 µM, first compound 0.1 µM
[20] = second compound 1 µM, first compound 0.316 µM
[21] = second compound 1 µM, first compound 1 µM
[22] = second compound 1 µM, first compound 3.16 µM
[23] = second compound 1 µM, first compound 10 µM
[24] = second compound 3.16 µM, first compound 0.0316 µM
[25] = second compound 3.16 µM, first compound 0.1 µM
[26] = second compound 3.16 µM, first compound 0.316 µM
[27] = second compound 3.16 µM, first compound 1 µM
[28] = second compound 3.16 µM, first compound 3.16 µM
[29] = second compound 3.16 µM, first compound 10 µM
[30] = second compound 10 µM, first compound 0.0316 µM
[31] = second compound 10 µM, first compound 0.1 µM
[32] = second compound 10 µM, first compound 0.316 µM
[33] = second compound 10 µM, first compound 1 µM
[34] = second compound 10 µM, first compound 3.16 µM
[35] = second compound 10 µM, first compound 10 µM
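Note: spheroids exposed to compounds for seven days before readout.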
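Throughout, for viability, T/C: 100% = DMSO vehicle control luminescence of the spheroids.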

O=C(c1cc(Cc2n[nH]c(=O)c3ccccc23)ccc1F)N1CCN(C(=O)C2CC2)CC1 + C=CC(=O)N1CCN(c2nc(=O)n(-c3c(C)ccnc3C(C)C)c3nc(-c4c(O)cccc4F)c(F)cc23)C(C)C1
IC50 [1]: > 10000 nM | IC50 [2]: > 10000 nM | IC50 [3]: > 10000 nM | IC50 [4]: > 10000 nM | IC50 [5]: > 10000 nM | viability, T/C [6]: 104% | viability, T/C [7]: 100% | viability, T/C [8]: 101% | viability, T/C [9]: 103% | viability, T/C [10]: 95.6% | viability, T/C [11]: 89.5% | viability, T/C [12]: 116% | viability, T/C [13]: 104% | viability, T/C [14]: 96% | viability, T/C [15]: 97% | viability, T/C [16]: 101% | viability, T/C [17]: 97.2% | viability, T/C [18]: 111% | viability, T/C [19]: 101% | viability, T/C [20]: 111% | viability, T/C [21]: 104% | viability, T/C [22]: 106% | viability, T/C [23]: 92% | viability, T/C [24]: 106% | viability, T/C [25]: 102% | viability, T/C [26]: 105% | viability, T/C [27]: 100% | viability, T/C [28]: 102% | viability, T/C [29]: 95.7% | viability, T/C [30]: 107% | viability, T/C [31]: 114% | viability, T/C [32]: 105% | viability, T/C [33]: 110% | viability, T/C [34]: 101% | viability, T/C [35]: 107%

CCNC(=O)CC1N=C(c2ccc(Cl)cc2)c2cc(OC)ccc2-n2c(C)nnc21 (stereo not given)
viability, T/C (compound 0.0316 µM): 110% [middle of 5 runs] | viability, T/C (compound 0.1 µM): 100% [middle of 5 runs] | viability, T/C (compound 0.316 µM): 90.8% [middle of 5 runs] | viability, T/C (compound 1 µM): 88.9% [middle of 5 runs] | IC50 (curve of compound): > 10000 nM and 4980 nM

COc1cc(Nc2ncc3c(n2)-c2ccc(Cl)cc2C(c2c(F)cccc2OC)=NC3)ccc1C(=O)O + C=CC(=O)N1CCN(c2nc(=O)n(-c3c(C)ccnc3C(C)C)c3nc(-c4c(O)cccc4F)c(F)cc23)C(C)C1
IC50 [1]: 89.7 nM | IC50 [2]: 107 nM | IC50 [3]: 59.2 nM | IC50 [4]: 110 nM | IC50 [5]: 122 nM | viability, T/C [6]: 86% | viability, T/C [7]: 40% | viability, T/C [8]: 32.7% | viability, T/C [9]: 28.6% | viability, T/C [10]: 18.9% | viability, T/C [11]: 9.83% | viability, T/C [12]: 86.7% | viability, T/C [13]: 45.4% | viability, T/C [14]: 35% | viability, T/C [15]: 28.8% | viability, T/C [16]: 19.5% | viability, T/C [17]: 10.7% | viability, T/C [18]: 56.4% | viability, T/C [19]: 43.1% | viability, T/C [20]: 36.6% | viability, T/C [21]: 29.3% | viability, T/C [22]: 21.4% | viability, T/C [23]: 12.3% | viability, T/C [24]: 77.6% | viability, T/C [25]: 45% | viability, T/C [26]: 39.1% | viability, T/C [27]: 29.1% | viability, T/C [28]: 19.2% | viability, T/C [29]: 13.6% | viability, T/C [30]: 93.3% | viability, T/C [31]: 47.6% | viability, T/C [32]: 38.4% | viability, T/C [33]: 32.4% | viability, T/C [34]: 22.4% | viability, T/C [35]: 17.5%

COc1cc(OC)cc(N(CCNC(C)C)c2ccc3ncc(-c4cnn(C)c4)nc3c2)c1
viability, T/C (compound 0.0316 µM): 107% [middle of 5 runs] | viability, T/C (compound 0.1 µM): 100% [middle of 5 runs] | viability, T/C (compound 0.316 µM): 96.7% [middle of 5 runs]

CC(=O)Nc1cccc(-n2c(=O)n(C3CC3)c(=O)c3c(Nc4ccc(I)cc4F)n(C)c(=O)c(C)c32)c1
viability, T/C (compound 0.0001 µM): 105% [middle of 5 runs] | viability, T/C (compound 0.000316 µM): 96.8% [middle of 5 runs] | viability, T/C (compound 0.001 µM): 91.9% [middle of 5 runs] | viability, T/C (compound 0.00316 µM): 75.8% [middle of 5 runs] | viability, T/C (compound 0.01 µM): 26.8% [middle of 5 runs] | viability, T/C (compound 0.0316 µM): 3.1% [middle of 5 runs] | IC50 (curve of compound): 5.78 nM [middle of 5 runs]
